Assay results from PubChem BioAssay (NCI).
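Exposure lasted 48 hours, with cells grown in 96-well plates and compounds tested at five concentrations. At the GI50, growth is halved. TGI: total growth inhibition.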

Assays:
Assay in all cases: growth of human tumour cells (NCI), 48 h
[1] = system: SF-268 CNS
[2] = system: SF-295 CNS
[3] = system: KM12 colon
[4] = system: LOX IMVI melanoma
[5] = system: HOP-62 NSCLC
[6] = system: M14 melanoma
[7] = system: HT29 colon
[8] = system: MDA-MB-435
[9] = system: UACC-257 melanoma
[10] = system: UACC-62 melanoma
[11] = system: SW-620 colon
[12] = system: MOLT-4 leukemia
[13] = system: NCI-H460 lung
[14] = system: K-562 leukemia
[15] = system: RXF 393 renal
[16] = system: IGROV1 ovarian
[17] = system: NCI-H23 lung
[18] = system: SNB-19 CNS
[19] = system: BT-549 breast
[20] = system: MDA-MB-231 breast
[21] = system: ACHN renal
[22] = system: A498 renal
[23] = system: SK-OV-3 ovarian
[24] = system: OVCAR-5 ovarian
[25] = system: TK-10 renal
[26] = system: OVCAR-4 ovarian
[27] = system: U251 CNS
[28] = system: MALME-3M melanoma
[29] = system: SR leukemia
[30] = system: MCF7 breast
[31] = system: SK-MEL-28 melanoma
[32] = system: NCI-H226 lung
[33] = system: SN12C renal
[34] = system: SNB-75 CNS
[35] = system: EKVX NSCLC
[36] = system: SF-539 CNS
[37] = system: HCC-2998 colon
[38] = system: A549 NSCLC
[39] = system: COLO 205 colon
[40] = system: SK-MEL-5 melanoma
[41] = system: SK-MEL-2 melanoma
[42] = system: T-47D breast
[43] = system: OVCAR-8 ovarian
[44] = system: HCT-15 colon
[45] = system: OVCAR-3 ovarian
[46] = system: 786-0 renal
[47] = system: PC-3 prostate
[48] = system: HCT-116 colon
[49] = system: NCI/ADR-RES ovarian
[50] = system: HL-60(TB) leukemia
[51] = system: DU-145 prostate
[52] = system: NCI-H522 lung
[53] = system: UO-31 renal
[54] = system: HS 578T breast
[55] = system: CAKI-1 renal
[56] = system: HOP-92 NSCLC

`COCC(=O)Oc1cc(-c2ccc(C)cc2C)c(OC(=O)COC)c(-c2ccc(C)cc2C)c1` showed a GI50 [1] of 3.91 µM, a TGI [1] of 23.9 µM and a GI50 [2] of 5.58 µM. The TGI [2] was 29.6 µM, the GI50 [3] was 4.45 µM and the TGI [3] was 19.5 µM. For the same compound, the GI50 [4] was 1.12 µM, the TGI [4] was 15.5 µM and the GI50 [5] was 11.7 µM. The TGI [5] was 28.1 µM, the GI50 [6] was 7.69 µM and the TGI [6] was 21.6 µM. For the same compound, the GI50 [7] was 4.02 µM, the TGI [7] was 21.8 µM and the GI50 [8] was 6.62 µM. It also gave a TGI [8] of 30.2 µM, a GI50 [9] of 8.23 µM and a TGI [9] of 35.9 µM. For the same compound, the GI50 [10] was 3.43 µM, the TGI [10] was 31.9 µM and the GI50 [11] was 5.09 µM. It also gave a TGI [11] of 18.3 µM, a GI50 [12] of 2.96 µM and a TGI [12] of over 100 µM. It also gave a GI50 [13] of 0.592 µM, a TGI [13] of 13.7 µM and a GI50 [14] of 3.56 µM. For the same compound, the TGI [14] was over 100 µM, the GI50 [15] was 11.2 µM and the TGI [15] was 46.1 µM. For the same compound, the GI50 [16] was 5.56 µM, the TGI [16] was 25.3 µM and the GI50 [17] was 5.61 µM. It also gave a TGI [17] of 23.4 µM, a GI50 [18] of 11.9 µM and a TGI [18] of 43.6 µM. The GI50 [19] was 7.7 µM, the TGI [19] was 22.9 µM and the GI50 [20] was 6.03 µM. It also gave a TGI [20] of 26.5 µM, a GI50 [21] of 9.07 µM and a TGI [21] of over 100 µM. The GI50 [22] was 5.57 µM, the TGI [22] was 19.9 µM and the GI50 [23] was 13.2 µM. It also gave a TGI [23] of 61.5 µM, a GI50 [24] of 21.7 µM and a TGI [24] of 61 µM. The GI50 [25] was 20.4 µM, the TGI [25] was over 100 µM and the GI50 [26] was 3.33 µM. It also gave a TGI [26] of 23.6 µM, a GI50 [27] of 2.02 µM and a TGI [27] of 23 µM. It also gave a GI50 [28] of 9.2 µM, a TGI [28] of 25.5 µM and a GI50 [29] of 1.59 µM. The TGI [29] was over 100 µM, the GI50 [30] was 4.75 µM and the TGI [30] was 51.4 µM. It also gave a GI50 [31] of 11.2 µM, a TGI [31] of 23.6 µM and a GI50 [32] of 8.59 µM. It also gave a TGI [32] of 46.9 µM, a GI50 [33] of 9.11 µM and a TGI [33] of 28.7 µM. It also gave a GI50 [34] of 3.22 µM, a TGI [34] of 20.4 µM and a GI50 [35] of 4.36 µM. The TGI [35] was 58.9 µM, the GI50 [36] was 12 µM and the TGI [36] was 28.8 µM. For the same compound, the GI50 [37] was 13.5 µM, the TGI [37] was 28.9 µM and the GI50 [38] was 4.73 µM. The TGI [38] was 29.1 µM, the GI50 [39] was 8.76 µM and the TGI [39] was 23.8 µM. For the same compound, the GI50 [40] was 2.04 µM, the TGI [40] was 15.7 µM and the GI50 [41] was 14.7 µM. The TGI [41] was 33.9 µM, the GI50 [42] was 4.52 µM and the TGI [42] was 54.9 µM. The GI50 [43] was 4.51 µM, the TGI [43] was 90.3 µM and the GI50 [44] was 0.58 µM. The TGI [44] was over 100 µM, the GI50 [45] was 3.64 µM and the TGI [45] was 16.5 µM. It also gave a GI50 [46] of 10.7 µM, a TGI [46] of 48.3 µM and a GI50 [47] of 0.824 µM. It also gave a TGI [47] of 35.1 µM, a GI50 [48] of 0.797 µM and a TGI [48] of 14.4 µM. It also gave a GI50 [49] of 5.84 µM, a TGI [49] of 55.3 µM and a GI50 [50] of 2.21 µM. For the same compound, the TGI [50] was 77.4 µM, the GI50 [51] was 10.3 µM and the TGI [51] was 30.2 µM. For the same compound, the GI50 [52] was 4.07 µM, the TGI [52] was 18.3 µM and the GI50 [53] was 2.47 µM. It also gave a TGI [53] of 15.5 µM.
`COc1ccc(Nc2nccc(Nc3ccc4[nH]ncc4c3)n2)cc1` gave a GI50 [1] of 4.2 µM, a TGI [1] of 28.6 µM and a GI50 [2] of 3.78 µM. For the same compound, the TGI [2] was 13.8 µM, the GI50 [3] was 3.45 µM and the TGI [3] was 24.2 µM. The GI50 [4] was 1.92 µM, the TGI [4] was 3.87 µM and the GI50 [5] was 2.27 µM. For the same compound, the TGI [5] was 5.75 µM, the GI50 [6] was 2.39 µM and the TGI [6] was 6.15 µM. For the same compound, the GI50 [7] was 2.36 µM, the TGI [7] was 8.33 µM and the GI50 [8] was 2.1 µM. It also gave a TGI [8] of 5.7 µM, a GI50 [9] of 5.41 µM and a TGI [9] of 16.9 µM. It also gave a GI50 [11] of 3.31 µM, a TGI [11] of over 100 µM and a GI50 [15] of 1.98 µM. The TGI [15] was 6.45 µM, the GI50 [16] was 3.36 µM and the TGI [16] was 25.1 µM. For the same compound, the GI50 [17] was 2.35 µM, the TGI [17] was 6.27 µM and the GI50 [18] was 4.3 µM. For the same compound, the TGI [18] was 87 µM, the GI50 [19] was 3.22 µM and the TGI [19] was 12.1 µM. The GI50 [54] was 5.02 µM, the TGI [54] was over 100 µM and the GI50 [21] was 2.89 µM. For the same compound, the TGI [21] was 11.7 µM, the GI50 [22] was 4.62 µM and the TGI [22] was 17.2 µM. It also gave a GI50 [23] of 7.04 µM, a TGI [23] of 21.7 µM and a GI50 [24] of 3.33 µM. It also gave a TGI [24] of over 100 µM, a GI50 [25] of 2.45 µM and a TGI [25] of 9.55 µM. For the same compound, the GI50 [26] was 2.99 µM, the TGI [26] was 11.8 µM and the GI50 [27] was 3.61 µM. It also gave a TGI [27] of 13.6 µM, a GI50 [28] of 3.27 µM and a TGI [28] of 15.9 µM. It also gave a GI50 [30] of 2.05 µM, a TGI [30] of 5.36 µM and a GI50 [31] of 3.64 µM. For the same compound, the TGI [31] was 16.5 µM, the GI50 [32] was 2.3 µM and the TGI [32] was 5.77 µM. The GI50 [33] was 3.92 µM, the TGI [33] was over 100 µM and the GI50 [34] was 4.58 µM. It also gave a TGI [34] of 20.3 µM, a GI50 [35] of 5 µM and a TGI [35] of 17.9 µM. It also gave a GI50 [36] of 4.38 µM, a TGI [36] of 16.8 µM and a GI50 [37] of 2.88 µM. It also gave a TGI [37] of 8.05 µM, a GI50 [38] of 3.46 µM and a TGI [38] of 14.3 µM. It also gave a GI50 [39] of 2.59 µM, a TGI [39] of 7.21 µM and a GI50 [40] of 2.01 µM. It also gave a TGI [40] of 4.75 µM, a GI50 [41] of 2.4 µM and a TGI [41] of 6.39 µM. It also gave a GI50 [42] of 1.77 µM, a TGI [42] of 5.42 µM and a GI50 [43] of 2.24 µM. For the same compound, the TGI [43] was 5.39 µM, the GI50 [44] was 1.9 µM and the TGI [44] was 4.28 µM. It also gave a GI50 [45] of 3.15 µM, a TGI [45] of 10.6 µM and a GI50 [46] of 1.74 µM. It also gave a TGI [46] of 4.75 µM, a GI50 [55] of 2.22 µM and a TGI [55] of 14.9 µM. For the same compound, the GI50 [47] was 2.21 µM, the TGI [47] was 7.2 µM and the GI50 [48] was 2.06 µM. It also gave a TGI [48] of 4.91 µM, a GI50 [49] of 2.18 µM and a TGI [49] of 5.75 µM. It also gave a GI50 [50] of 2.05 µM, a TGI [50] of 4.67 µM and a GI50 [51] of 3.31 µM. The TGI [51] was 12.9 µM, the GI50 [56] was 3.13 µM and the TGI [56] was 12.9 µM. It also gave a GI50 [52] of 1.86 µM, a TGI [52] of 4.77 µM and a GI50 [53] of 2.12 µM. It also gave a TGI [53] of 11.4 µM.
